From the supplement of paper PMC8617591

Experiments:
[1] = tested on: Mycobacterium tuberculosis Erdman (autoluminescent); test: GRinf, maximum normalised growth rate inhibition (three-drug combination) (unitless (-1 to 1)); higher = less effect (negative = killing)
Experimental: (§1)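 DiaMOND equipotent three-drug combination dose responses (10 doses, 1.5- or 2-fold spacing, centred on IC90) against autoluminescent M. tuberculosis Erdman in 8 in vitro models. Read-out is OD600, or luminescence for the intracellular and dormancy models, normalised to untreated wells. Hill-fit Einf, AUC25 and GRinf are potency metrics; FIC50 and FIC90 are total Loewe fractional inhibitory concentrations as log2 (negative = synergy).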

[2] = tested on: Mycobacterium tuberculosis Erdman (autoluminescent); test: Einf, fitted maximum growth inhibition of three-drug combination (fraction); higher = stronger maximal inhibition
Experimental: as §1

[3] = tested on: Mycobacterium tuberculosis Erdman (autoluminescent); test: AUC25, normalised area under dose response up to IC25 (three-drug combination) (fraction (0-1)); higher = more potent at low dose
Experimental: as §1

[4] = tested on: Mycobacterium tuberculosis Erdman (autoluminescent); test: total FIC90 (Loewe) at 90% inhibition, three-drug combination (log2); higher = more antagonistic
Experimental: as §1

[5] = tested on: Mycobacterium tuberculosis Erdman (autoluminescent); test: total FIC50 (Loewe) at 50% inhibition, three-drug combination (log2); higher = more antagonistic
Experimental: as §1

COc1nc2ccc(Br)cc2cc1[C@@H](c1ccccc1)[C@@](O)(CCN(C)C)c1cccc2ccccc12 [bedaquiline] + COc1c(N2C[C@@H]3CCCN[C@@H]3C2)c(F)cc2c(=O)c(C(=O)O)cn(C3CC3)c12 [moxifloxacin] + CO[C@H]1/C=C/O[C@@]2(C)Oc3c(C)c(O)c4c(O)c(c(/C=N/N5CCN(C6CCCC6)CC5)c(O)c4c3C2=O)NC(=O)/C(C)=C\C=C\[C@H](C)[C@H](O)[C@@H](C)[C@@H](O)[C@@H](C)[C@H](OC(C)=O)[C@@H]1C [rifapentine]
Conditions | AUC25, [3] | Einf, [2] | GRinf, [1] | total FIC50, [5] | total FIC90, [4]
in vitro model: acidic pH 5.7, time point: constant (~7 days, model-specific) | 0.0678 | 0.851 | -0.0721 | 0.823 | –
in vitro model: acidic pH 5.7, time point: terminal (~4-5 doublings, model-specific) | 0.0653 | 0.994 | -0.308 | 1.07 | 0.708
in vitro model: intracellular J774, time point: constant = terminal | – | 0.932 | -0.235 | – | 0.946

Conditions | AUC25, [3] | Einf, [2] | GRinf, [1] | total FIC50, [5] | total FIC90, [4]
in vitro model: butyrate, time point: constant (~7 days, model-specific) | 0.1 | 0.952 | -0.132 | 0.844 | 0.676
in vitro model: butyrate, time point: terminal (~4-5 doublings, model-specific) | 0.0773 | 0.977 | -0.0985 | 0.876 | 0.991
in vitro model: cholesterol 0.05 mM, time point: constant (~7 days, model-specific) | 0.0837 | 0.716 | -0.256 | 0.531 | –
in vitro model: cholesterol 0.05 mM, time point: terminal (~4-5 doublings, model-specific) | 0.0604 | 0.905 | -0.183 | 0.923 | 0.462
in vitro model: cholesterol-high 0.2 mM, time point: constant (~7 days, model-specific) | 0.0607 | 0.949 | -0.394 | 0.723 | 0.4
in vitro model: cholesterol-high 0.2 mM, time point: terminal (~4-5 doublings, model-specific) | 0.0498 | 1 | -0.57 | 0.949 | 0.645
in vitro model: dormancy (butyrate + nitrate, low O2), time point: constant (~7 days, model-specific) | 0.0857 | 0.928 | 0.0745 | 0.868 | 1.67
in vitro model: dormancy (butyrate + nitrate, low O2), time point: terminal (~4-5 doublings, model-specific) | 0.0736 | 0.997 | -0.28 | 1.05 | 1.35
in vitro model: standard 7H9 glycerol, time point: constant = terminal | 0.0761 | 0.966 | -0.0766 | 0.73 | 0.338
in vitro model: valerate, time point: constant (~7 days, model-specific) | 0.063 | 0.915 | -0.117 | 1.01 | –
in vitro model: valerate, time point: terminal (~4-5 doublings, model-specific) | 0.0335 | 0.946 | -0.0711 | 0.995 | 0.711

COc1nc2ccc(Br)cc2cc1[C@@H](c1ccccc1)[C@@](O)(CCN(C)C)c1cccc2ccccc12 [bedaquiline] + COc1c(N2C[C@@H]3CCCN[C@@H]3C2)c(F)cc2c(=O)c(C(=O)O)cn(C3CC3)c12 [moxifloxacin] + CO[C@H]1/C=C/O[C@@]2(C)Oc3c(C)c(O)c4c(O)c(c(/C=N/N5CCN(C)CC5)c(O)c4c3C2=O)NC(=O)/C(C)=C\C=C\[C@H](C)[C@H](O)[C@@H](C)[C@@H](O)[C@@H](C)[C@H](OC(C)=O)[C@@H]1C [rifampicin]
Conditions | AUC25, [3] | Einf, [2] | GRinf, [1] | total FIC50, [5] | total FIC90, [4]
in vitro model: acidic pH 5.7, time point: constant (~7 days, model-specific) | 0.0637 | 0.833 | -0.0329 | 0.708 | –
in vitro model: acidic pH 5.7, time point: terminal (~4-5 doublings, model-specific) | 0.0621 | 0.98 | -0.13 | 1.07 | 0.594
in vitro model: intracellular J774, time point: constant = terminal | – | 0.938 | -0.427 | – | 0.931

Conditions | AUC25, [3] | Einf, [2] | GRinf, [1] | total FIC50, [5] | total FIC90, [4]
in vitro model: butyrate, time point: constant (~7 days, model-specific) | 0.12 | 0.964 | -0.414 | 0.594 | 0.579
in vitro model: butyrate, time point: terminal (~4-5 doublings, model-specific) | 0.105 | 0.99 | -0.247 | 0.573 | 1.1
in vitro model: cholesterol 0.05 mM, time point: constant (~7 days, model-specific) | 0.0826 | 0.745 | -0.166 | 0.0975 | –
in vitro model: cholesterol 0.05 mM, time point: terminal (~4-5 doublings, model-specific) | 0.074 | 0.866 | -0.045 | 1.13 | -0.616
in vitro model: cholesterol-high 0.2 mM, time point: constant (~7 days, model-specific) | 0.057 | 0.957 | -0.452 | 0.677 | 0.0311
in vitro model: cholesterol-high 0.2 mM, time point: terminal (~4-5 doublings, model-specific) | 0.0547 | 1 | -0.61 | 0.955 | 0.594
in vitro model: dormancy (butyrate + nitrate, low O2), time point: constant (~7 days, model-specific) | 0.0876 | 0.925 | 0.215 | 0.688 | 0.901
in vitro model: dormancy (butyrate + nitrate, low O2), time point: terminal (~4-5 doublings, model-specific) | 0.0619 | 0.982 | -0.201 | 0.97 | 1.03
in vitro model: standard 7H9 glycerol, time point: constant = terminal | 0.0774 | 0.96 | -0.141 | 0.732 | –
in vitro model: valerate, time point: constant (~7 days, model-specific) | 0.046 | 0.884 | -0.0825 | 1.19 | –
in vitro model: valerate, time point: terminal (~4-5 doublings, model-specific) | 0.0316 | 0.953 | -0.044 | 1.1 | 0.726

COc1nc2ccc(Br)cc2cc1[C@@H](c1ccccc1)[C@@](O)(CCN(C)C)c1cccc2ccccc12 [bedaquiline] + COc1c(N2C[C@@H]3CCCN[C@@H]3C2)c(F)cc2c(=O)c(C(=O)O)cn(C3CC3)c12 [moxifloxacin] + NC(=O)c1cnccn1 [pyrazinamide]
Conditions | AUC25, [3] | Einf, [2] | GRinf, [1] | total FIC50, [5] | total FIC90, [4]
in vitro model: acidic pH 5.7, time point: constant (~7 days, model-specific) | 0.0871 | 0.847 | -0.43 | 0.0701 | –
in vitro model: acidic pH 5.7, time point: terminal (~4-5 doublings, model-specific) | 0.0844 | 0.984 | -0.325 | 0.276 | -0.165
in vitro model: intracellular J774, time point: constant = terminal | – | 0.982 | -0.385 | – | 0.89

Conditions | AUC25, [3] | Einf, [2] | GRinf, [1] | total FIC50, [5] | total FIC90, [4]
in vitro model: butyrate, time point: constant (~7 days, model-specific) | 0.108 | 0.952 | -0.798 | 0.562 | 1.12
in vitro model: butyrate, time point: terminal (~4-5 doublings, model-specific) | 0.0863 | 0.987 | -0.741 | 0.738 | 1.18
in vitro model: cholesterol 0.05 mM, time point: constant (~7 days, model-specific) | 0.113 | 0.762 | -0.387 | – | –
in vitro model: cholesterol 0.05 mM, time point: terminal (~4-5 doublings, model-specific) | 0.115 | 0.95 | -0.419 | 0.205 | 2.28
in vitro model: cholesterol-high 0.2 mM, time point: constant (~7 days, model-specific) | 0.0866 | 0.981 | -0.58 | 0.399 | –
in vitro model: cholesterol-high 0.2 mM, time point: terminal (~4-5 doublings, model-specific) | 0.0915 | 1 | -0.586 | 0.406 | 0.558
in vitro model: dormancy (butyrate + nitrate, low O2), time point: constant (~7 days, model-specific) | 0.0687 | 0.928 | 0.247 | -0.56 | -0.988
in vitro model: dormancy (butyrate + nitrate, low O2), time point: terminal (~4-5 doublings, model-specific) | 0.0596 | 0.987 | -0.0885 | 0.109 | -0.187
in vitro model: standard 7H9 glycerol, time point: constant = terminal | 0.0806 | 0.969 | -0.108 | – | –
in vitro model: valerate, time point: constant (~7 days, model-specific) | 0.102 | 0.916 | -0.131 | 0.831 | –
in vitro model: valerate, time point: terminal (~4-5 doublings, model-specific) | 0.06 | 0.949 | -0.0556 | 0.778 | 1.03
